# Patent US8540966B2, “Contrast agents endowed with high relaxivity” (Bracco Imaging S.p.A., priority 2004, dated 2013)
# Experiment: 1/T1 NMRD profiles: relaxivity over a range of magnetic field strength
# Type: physicochemical
# Conditions: from 0.2 to 3 MHz; 25° C., 1 mM aqueous solution (FIG. 6)
# Method: As an example, the relaxivity profile of the gadolinium complex of the chelating ligand of the invention 2b (hereinafter referred to as Gd-2b), in the above magnetic field range, has been compared with that of a marketed NSA, i.e. Magnevist®, and that of a blood pool agent, i.e. the macromolecular adduct between Gd-DTPA(BOM)3 and BSA (Bovine Serum Albumin) (FIG. 6).
# The corresponding profile for the above blood pool agent is quite different.
# A further test was performed in which the relaxivity values r1p, shown by the compounds of the invention as measured at 20 MHz and 298K, were plotted against the molecular reorientational values τR of the same compounds. The stability of the relaxivity properties shown by the compounds of the invention was tested. In a first experiment, the 1/T1 NMRD profiles for some compounds of the invention were acquired over a range of magnetic field strengths ranging from 0.01 to 130 MHz. […]
# (§1) Conversely, the relaxivity improvement shown by the blood pool agent rapidly falls dawn over the same range of magnetic field strength. In addition to the above, please find below as per table 7, other relaxivity values, measured as above indicated, for some other representative compounds of the invention.
row,Molecule,relaxivity profile versus field strength
1,Gd-DTPA,quite stable though very low

# Experiment: Relaxivity determination (r1p) at 20 MHz, 298K, pH 7
# Type: physicochemical
# Conditions: 298K, 20 MHz, pH 7; q=1 Gd complexes derived from the DTPA-monophosphonate backbone (Table 5)
# Method: As far as the relaxation enhancement property is concerned, a paramagnetic Gd(III) complex is characterized by its relaxivity (r1p) which represents the increase of the proton relaxation rate of an aqueous solution of the Gd(III) complex in comparison to the proton relaxation rate of neat water (R1°). The relaxivity is usually measured at 298K and 20 MHz (0.5 T).
# In order to best evaluate the relaxivity properties and the parameters affecting the relaxivity of the agents of the invention, some comparative tests have been performed. In a first experiment, the relaxivity of a number of Gd-based chelated compounds having different molecular weight, all derived from the following [Gd(DTPA-monophosphonate)]^3− basic backbone structure (r1p at 20 MHz and 298K: 6.1 mM^−1 s^−1) of formula
# Tested compounds include the Gd-complex of the chelating compounds 1b and 2b of the invention (hereinafter Gd-1b and Gd-2b) as well as a number of different derivatives of the aforementioned backbone moiety selected in order to cover a range of molecular weights of up to about 1800 Dalton. The relaxivity of all of the tested compounds were measured at 298K and 20 MHz and pH 7. The obtained values, listed in table 5 below (together with the structure of the compounds) have also been plotted against the MW of the complexes (see FIG. 1).
# A second experiment was performed to test the relaxivity of different compounds of the invention, marketed NSA, known LDA and other systems, all containing one coordinated water molecule (q=1). The data were registered at 298K and 20 MHz and pH=7, and plotted against their corresponding MW. Relaxivity data relating to LDA P760 and P792 (LDA contrast agents) are based on literature cited below.
# as §1
row,Molecule,R1p (relaxivity) [mM⁻¹ s⁻¹]
1,O=C(O)CN(CCN(CCN(CC(=O)O)[C@@H](Cc1ccccc1)C(=O)O)CP(=O)(O)O)[C@@H](Cc1ccccc1)C(=O)O [B 22606],7.7
2,O=C(O)CN(CCN(CCN(CC(=O)O)[C@@H](Cc1c[nH]c2ccccc12)C(=O)O)CP(=O)(O)O)C(Cc1c[nH]c2ccccc12)C(=O)O (stereo partly drawn) [B 22836],7.9
3,O=C(O)CN(CCN(CCN(CC(=O)O)[C@@H](COCc1ccccc1)C(=O)O)CP(=O)(O)O)[C@@H](COCc1ccccc1)C(=O)O [B 22666],7.9

# Same assay, conditions: 298K, 20 MHz, pH=7; q=1 complexes (Table 6)
row,Molecule,R1p (relaxivity) [mM⁻¹ s⁻¹]
1,O=C(O)CN(CCN(CC(=O)O)CC(=O)O)CCN(CC(=O)O)CC(=O)O [Gd-DTPA],4.7
2,O=C(O)CN1CCN(C(COCc2ccccc2)C(=O)O)CCN(CC(=O)O)CCN(C(COCc2ccccc2)C(=O)O)CC1 (stereo not drawn) [Compound B19236],6.5
3,O=C(O)CN1CCN(CC(=O)O)CCN(C(COCc2ccccc2)C(=O)O)CCN(CC(=O)O)CC1 (stereo not drawn) [Compound B19106],5.5
4,O=C(O)CN1CCN(C(COCc2ccccc2)C(=O)O)CCN(C(COCc2ccccc2)C(=O)O)CCN(C(COCc2ccccc2)C(=O)O)CC1 (stereo not drawn) [Compound B19406],7.5
5,O=C(O)CN1CCN(CC(=O)O)CCN(CC(=O)O)CCN(CC(=O)O)CC1 [Gd-DOTA],4.7

# Same assay, conditions: measured as above indicated: 298K, 20 MHz (Table 7)
row,Molecule,R1p (relaxivity) [mM⁻¹ s⁻¹]
1,O=C(O)CCC(C(=O)O)N1CCN(Cc2cccc(C(=O)NCC(CNC(=O)C(O)C(O)C(O)C(O)CO)(CNC(=O)C(O)C(O)C(O)C(O)CO)CNC(=O)C(O)C(O)C(O)C(O)CO)c2)CCN(C(CCC(=O)O)C(=O)O)CCN(C(CCC(=O)O)C(=O)O)CC1 (stereo not drawn) [Gd-1d],24
2,CC1(N(CC(=O)O)CC(=O)O)CN(C(CCC(=O)N(CCN(CCC(=O)NC(CO)(CO)CO)CCC(=O)NC(CO)(CO)CO)CCN(CCC(=O)NC(CO)(CO)CO)CCC(=O)NC(CO)(CO)CO)C(=O)O)CCN(C(CCC(=O)N(CCN(CCC(=O)NC(CO)(CO)CO)CCC(=O)NC(CO)(CO)CO)CCN(CCC(=O)NC(CO)(CO)CO)CCC(=O)NC(CO)(CO)CO)C(=O)O)C1 (stereo not drawn) [Gd-15a],16.7
3,O=C(CC[C@@H](C(=O)O)N1CCN([C@@H](CCC(=O)NC(COC2OC(CO)C(O)C(O)C2O)(COC2OC(CO)C(O)C(O)C2O)COC2OC(CO)C(O)C(O)C2O)C(=O)O)CCN([C@@H](CCC(=O)NC(COC2OC(CO)C(O)C(O)C2O)(COC2OC(CO)C(O)C(O)C2O)COC2OC(CO)C(O)C(O)C2O)C(=O)O)CCN([C@@H](CCC(=O)NC(COC2OC(CO)C(O)C(O)C2O)(COC2OC(CO)C(O)C(O)C2O)COC2OC(CO)C(O)C(O)C2O)C(=O)O)CC1)NC(COC1OC(CO)C(O)C(O)C1O)(COC1OC(CO)C(O)C(O)C1O)COC1OC(CO)C(O)C(O)C1O (stereo partly drawn) [Gd-7c],20.4
